Ends that are not written are not given here. Peptide text beside a SMILES is read from it.
Tested on: 3T3-L1 Adipocytes
Test: Free fatty acid levels in cultured mouse 3T3-L1 adipocytes, isoproterenol stimulated (Example 17)
Assay type: cell-based
Conditions: Peptide Concentration 25 μM; isoproterenol 1 nM
Method: Mouse 3T3-L1 cells were seeded at a density between 1,000-20,000 cells per well on 96-well, 48-well, or 24-well plates in Pre-adipocyte Medium (Zen-Bio, Durham, N.C.) and grown to confluence at 37° C. in a humidified atmosphere of 5% CO2/95% air. Two days after confluence, cells were placed in Adipocyte Differentiation Medium (Zen-Bio, Durham, N.C.) and cultured for three additional days at 37° C. in a humidified atmosphere of 5% CO2/95% air. The culture media was then replaced with Adipocyte Maintenance Medium (Zen-Bio) and the cells were maintained for an additional 9-14 days at 37° C. in a humidified atmosphere of 5% CO2/95% air with partial medium replacement every other day. Following 12-17 days of differentiation, test peptides were added at a final concentration of 25-50 μM and incubated for 18-20 hours in Adipocyte Maintenance Medium at 37° C. in a humidified atmosphere of 5% CO2/95%. After the media incubation, media was removed and exchanged with Assay Buffer (Zen-Bio) containing isoproterenol (1 nM) (added to all samples except untreated controls) and the test peptides. Cells were incubated for a further 3 hours at 37° C. in a humidified atmosphere of 5% CO2/95%. Free fatty acid concentrations in the media were determined using a Free Fatty Acid Assay Kit (Zen-Bio) according to the manufacturer's instructions using a plate reader (540 nm).
Absorbance values were corrected for untreated background and expressed relative to isoproterenol treated cells. Treatment with isoproterenol (1 nM) alone was used as the free fatty acid level stimulatory control. The relative standard deviation of the isoproterenol control was <10%. […] Free fatty acid levels for insulin (100 nM) treatment were <5% of the isoproterenol control value.

Compound | Free Fatty Acid Levels in 3T3-L1 Adipocytes Expressed as a Percent of Isoproterenol Control: Percent of Control Value [%]
CC[C@H](C)[C@H](NC(=O)[C@H](Cc1ccc(O)cc1)NC(=O)[C@H](CC(N)=O)NC(=O)[C@H](CCSC)NC(=O)[C@H](CCC(=O)O)NC(=O)[C@H](CCC(N)=O)NC(=O)[C@H](Cc1c[nH]c2ccccc12)NC(=O)[C@@H](N)CCCNC(=N)N)C(=O)N[C@@H](Cc1ccccc1)C(=O)N[C@@H](Cc1ccc(O)cc1)C(=O)N1CCC[C@H]1C(=O)N[C@@H](CCCNC(=N)N)C(=O)N[C@H](C)C(=O)O [compound 355] (HELM PEPTIDE1{R.W.Q.E.M.N.Y.I.F.Y.P.R.[dA]}$$$$V2.0) | 97.8
CC[C@H](C)[C@H](NC(=O)[C@H](Cc1ccc(O)cc1)NC(=O)[C@H](CC(N)=O)NC(=O)[C@H](CCSC)NC(=O)[C@H](CCC(=O)O)NC(=O)[C@H](CCC(N)=O)NC(=O)[C@H](Cc1c[nH]c2ccccc12)NC(=O)[C@@H](N)CCCNC(=N)N)C(=O)N[C@@H](Cc1ccccc1)C(=O)N[C@@H](Cc1ccc(O)cc1)C(=O)N1CCC[C@H]1C(=O)N[C@@H](CCCNC(=N)N)C(=O)N[C@@H](CCCNC(=N)N)C(=O)N[C@H](C)C(=O)O [compound 356] (HELM PEPTIDE1{R.W.Q.E.M.N.Y.I.F.Y.P.R.R.[dA]}$$$$V2.0) | 100.6
H-EMNYIFYP-OH [compound 362] | 92.5
H-IFYPR-OH [compound 360] | 94.6
H-QEMNYIFYP-OH [compound 363] | 131.5
H-QEMNYIFYPR-OH [compound 366] | 82.0
H-RWQEM-OH [compound 351] | 100.1
H-RWQEMNYIFYPR-NH2 [compound 354] | 92.3
H-WQEMNYIFY-OH [compound 365] | 85.6
H-YIFYPR-OH [compound 296] | 85.0

Same assay, conditions: Peptide Concentration 50 μM; isoproterenol 1 nM

Compound | Free Fatty Acid Levels in 3T3-L1 Adipocytes Expressed as a Percent of Isoproterenol Control: Percent of Control Value [%]
369 (PEG600-KEMNYIFYPR) [compound 369] | 87.5
370 (PEG600-KWQEMNYIFYPR) [compound 370] | 129.0
371 (PEG600-KRWQEMNYIFYP) [compound 371] | 118.0
372 (PEG600-KWQEMNYIFYP) [compound 372] | 168.0
